The conditions of this data set: amide bond, 24-membered ring.
[1] abbreviates: 2-chloro-1-methylpyridinium iodide/TEA, DCM, 4.2 mM, 25.0 °C.

Where two headings read alike, the source gives them in different places.

Under “the molecule shown is the open-chain precursor, BOP-Cl/DIEA, CH2Cl2, 0.98 mM”, “H-MeLeu-dLac-MeLeu-dLac-MeLeu-[3-oxy-2-oxopiperidin-1-yl (delta-lactam, replaces Lac + N-Me)]Leu-dPhLac-OH?” yielded a ring closure, isolated yield of 48%.

Substance “H-MeLeu-dLac-MeLeu-dPhLac-MeLeu-[3-oxy-2-oxopiperidin-1-yl (delta-lactam, replaces Lac + N-Me)]Leu-dPhLac-OH?” returned a ring closure, isolated yield (the molecule shown is the open-chain precursor, BOP-Cl/DIEA, CH2Cl2, 0.99 mM) of 65%.

For the setting “2-chloro-1-methylpyridinium iodide/TEA, DCM, 4.75 mM, 25.0 °C”, “cvlo(D-2-hydroxypropanoyl-L-pipecolyl-D-2-hydroxypropanoyl-N-methyl-L-leucyl-D-2-hydroxypropanoyl-N-methyl-L-leucyl-D-2-hydroxypropanoyl-N-methyl-L-leucyl)” had a ring closure, isolated yield of 34%.

Take “cyclo(D-2-hydroxy-3-phenylpropanoyl-L-pipecolyl-D-2-hydroxypropanoyl-N-methyl-L-leucyl-D-2-hydroxy-3-phenylpropanoyl-N-methyl-L-leucyl-D-2-hydroxypropanoyl-N-methyl-L-leucyl)”: under setting [1], the ring closure, isolated yield amounted to 50%.

As to “cyclo(D-2-hydroxy-3-phenylpropanoyl-L-prolyl-D-2-hydroxypropanoyl-N-methyl-L-leucyl-D-2-hydroxy-3-phenylpropanoyl-N-methyl-L-leucyl-D-2-hydroxypropanoyl-N-methyl-L-leucyl)”, under “2-chloro-1-methylpyridinium iodide/TEA, DCM, 5.9 mM, 25.0 °C”, the ring closure, isolated yield stood at 12%.

Take “cyclo(D-2-hydroxypropanoyl-L-N-δ-tetrahydroquinoline-3-carboxyl-D-2- hydroxy-3-phenylpropanoyl-N-methyl-L-leucyl-D-2-hydroxypropanoyl-N-methyl-L-leucyl-D-2-hydroxy-3-phenylpropanoyl-N-methyl-L-leucyl)”: the ring closure, isolated yield under setting [1] came to 42%.

Consider “cylo(D-2-hydroxypropanoyl-L-N-α-tetrahydroquinoline-3-carboxyl-D-2-hydroxypropanoyl-N-methyl-L-leucyl-D-2-hydroxypropanoyl-N-methyl-L-leucyl-D- 2-hydroxypropanoyl-N-methyl-L-leucyl)”, for which the ring closure, isolated yield (2-chloro-1-methylpyridinium iodide/TEA, DCM, 6.0 mM, 25.0 °C) turned out to be 50%.

The record behind these values is patent US5776950.
